{"source": "patent US20040039053A1", "about": "“Use of(-) (3-halomethylphenoxy) (4-halophenyl) acetic acid derivatives for treatment of insulin resistance, type 2 diabetes, hyperlipidemia and hyperuricemia” (priority 2000, published 2004)", "key": {"[1]": {"experiment": "Pharmacokinetic study in SD rats, chiral HPLC of plasma halofenic acids (Example 14)", "type": "in vivo", "details": "single oral dose of (−) halofenate 50 mg/kg", "experimental": "Male 225-250 g SD rats were purchased from Charles River. […] A catheter was placed in the left carotid artery under sodium pentobarbital (50 mg/kg i.p.) and animals were allowed to recover for 2 days before treatment. […] The gavage volume was 5 ml/kg. Blood samples were collected at 1, 2, 4, 6, 8, 12, 24, 48, 72, 96 and 120 hours post dose. The plasma samples were analyzed for each enantiomeric acid ((−) halofenic acid and (+) halofenic acid) by a chiral specific HPLC assay, since the esters are prodrugs, which are designed to convert to their respective enantiomeric acids in vivo."}, "[2]": {"biological_target": "T1, cytochrome P450 2C9 (CYP2C9) (Homo sapiens, UniProt P11712)", "T1 sequence (P11712 whole entry)": "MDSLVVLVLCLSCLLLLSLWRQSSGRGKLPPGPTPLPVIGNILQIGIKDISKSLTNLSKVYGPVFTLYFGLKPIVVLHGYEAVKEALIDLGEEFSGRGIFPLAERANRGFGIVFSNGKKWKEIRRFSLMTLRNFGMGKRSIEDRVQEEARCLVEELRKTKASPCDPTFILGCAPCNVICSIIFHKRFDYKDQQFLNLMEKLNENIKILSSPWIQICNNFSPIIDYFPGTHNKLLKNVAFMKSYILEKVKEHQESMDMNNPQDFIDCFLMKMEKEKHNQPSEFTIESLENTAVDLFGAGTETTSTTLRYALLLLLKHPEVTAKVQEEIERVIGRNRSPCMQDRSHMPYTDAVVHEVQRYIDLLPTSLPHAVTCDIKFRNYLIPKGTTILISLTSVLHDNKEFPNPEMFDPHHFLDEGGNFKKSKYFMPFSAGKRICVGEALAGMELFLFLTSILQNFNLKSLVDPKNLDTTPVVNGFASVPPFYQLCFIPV", "experiment": "Inhibition of CYP2C9 tolbutamide hydroxylation activity in pooled human liver microsomes (Example 7)", "protocol": "(§2) Tolbutamide hydroxylation activity (100 μM C-tolbutamide; 1 mM NADPH) was assayed in pooled human liver microsomes (0.6 mg protein/ml)) for 60 minutes at 37° C. both with and without test compounds."}, "[3]": {"biological_target": "T1, cytochrome P450 2C9 (CYP2C9)", "experiment": "biochemical", "protocol": "as §2"}, "[4]": {"system": "diabetic ob/ob mice", "experiment": "Glucose and insulin lowering on daily oral administration for 5 days in ob/ob mice (Example 9)", "protocol": "Animals were housed (4-5 mice/cage) under standard laboratory conditions at 22° C. and 50% relative humidity, and were maintained on a diet of Purina rodent chow and water ad libitum. Prior to treatment, blood was collected from the tail vein of each animal. Mice that had non-fasting plasma glucose levels between 300 and 520 mg/dL were used. Each treatment group consisted of 10 mice that were distributed so that the mean glucose levels were equivalent in each group as the start of the study. […] The gavage volume was 10 ml/kg. Blood samples were taken at 3, 6, 27, 30 and 120 hour after the first dose and analyzed for plasma glucose and insulin. The animals were fasted overnight (14 hours) before the 120 hours sampling. Plasma glucose concentrations were determined calorimetrically using glucose oxidase method (Sigma Chemical Co, St. Louis, Mo., USA). Plasma insulin concentrations were determined by using the Rat Insulin RIA Kit from Linco Research Inc. (St. Charles, Mo., USA). Significance difference between groups (comparing drug-treated to vehicle-treated) was evaluated using Student unpaired t-test."}, "[5]": {"system": "patients with diabetes", "details": "cited from earlier work"}, "[6]": {"system": "diabetic ob/ob mice", "experiment": "Time course of glucose-lowering after a single oral dose in ob/ob mice (Example 8)", "type": "in vivo", "details": "single oral dose 250 mg/kg"}, "[7]": {"system": "Zucker fatty rats", "experiment": "Oral glucose challenge in Zucker fatty rats (Example 10)", "type": "in vivo", "details": "racemate 100 mg/kg, enantiomers 50 and 100 mg/kg; for incremental glucose area under the curve (AUC) vs control, in words: single oral dose", "experimental": "(§1) Prior to treatment, rats were assigned to 6 groups based on body weight. Each treatment group consisted of 8 rats. […] The gavage volume was 10 ml/kg. All rats received an oral glucose challenge (1.9 g/kg) 5.5 hours after the treatment and 4 hours after withdrawal of the food. Blood samples were taken at 0, 15, 30, 60, 90, 120, and 180 minutes following the glucose challenge for plasma glucose measurement. […] On day 5, rats received the intravenous insulin (0.75 U/kg) 5.5 hours after the last dose and 4 hours after withdrawal of the food. Blood samples were taken at 3, 6, 9, 12, 15 and 18 minutes following the insulin injection for plasma glucose measurement."}, "[8]": {"system": "Zucker Diabetic Fatty rats", "experiment": "Lipid lowering activity in Zucker Diabetic Fatty rats (Example 11)", "type": "in vivo", "details": "ZDF rats; for plasma cholesterol course during treatment, in words: 13 days, racemate 50 mg/kg/day, enantiomers 25 mg/kg/day", "experimental": "Male Zucker diabetic fatty (ZDF) rats were obtained from GMI Laboratories (Indianapolis, Ind.) at 9 weeks of age. Vehicle or enantiomers of halofenate administered by oral gavage on a daily basis starting at 74 days of age. Initial blood samples were obtained for analysis one day before treatment and at the indicated times in the treatment protocol. Blood was analyzed for plasma triglyceride and cholesterol by standard techniques."}, "[9]": {"system": "ZDF rats", "experiment": "Plasma glucose in ZDF rats, (−) versus (+) halofenate (Example 13)", "type": "in vivo", "details": "50 mg/kg oral once a day for 3 days", "experimental": "Male 8-9 week old ZDF rats were purchased from Genetic Models, Inc. (Indianapolis, Ind.). […] Rats that had 4-hour fasting plasma glucose levels between 200 and 500 mg/dL were used. […] The gavage volume was 5 ml/kg. Blood samples were taken at 5 hours post dose on day 2 and 3."}, "[10]": {"system": "Zucker fatty rats", "experiment": "Short insulin tolerance test in Zucker fatty rats (Example 10)", "type": "in vivo", "details": "50 mg/kg/day for 5 days", "experimental": "as §1"}, "[11]": {"system": "oxonic acid induced hyperuricemic rats", "experiment": "Plasma uric acid in oxonic acid induced hyperuricemic rats (Example 17)", "type": "in vivo", "details": "oxonic acid hyperuricemic SD rats, oral 50 mg/kg for 3 days, 100 mg/kg on day 4, 6 hours post gavage", "description": "Male SD rats, weight 275-300 g were purchased from Charles River. […] To establish a hyperuricemic state, animals were put on a diet containing 2.5% (w/w) of oxonic acid (Sigma Chemical Co, St. Louis, Mo., USA) throughout the experiment. Oxonic acid elevates plasma uric acid by inhibiting uricase. Rats were screened for plasma uric acid levels 3 days after they were placed on the diet, and those that had extreme plasma uric acid levels were excluded. Rats were assigned to one of three groups and the mean uric acid levels were equivalent in each group. […] Oxonic acid was delivered in a liquid formulation containing 0.9% (w/v) methylcellulose. The gavage and injection volumes were 5 ml/kg. Blood samples were taken at 6 hours post oral gavage on day 4. Plasma uric acid levels were determined colorimetrically using the Infinity Uric Acid Reagent (Sigma Chemical Co, St. Louis, Mo., USA)."}, "[12]": {"details": "250 mg/kg/day oral, listed as (+) enantiomer, 250 mg/kg/day"}}, "note": "Where “and” joins values, the source holds several entries; their conditions need not be identical. Equal entries are not always repeated.", "data": [{"smiles": "O=C(O)C(Oc1cccc(C(F)(F)F)c1)c1ccc(Cl)cc1", "note": "(single isomer, unassigned; (+)) [(+) halofenic acid, (+) 4-chlorophenyl-(3-trifluoromethylphenoxy)-acetic acid, reference compound]", "values": [{"measurement": "plasma concentration at 0 hour", "setting": "[1]; individual rats 8, 9, 11", "value": "BQL (BQL = Below Quantifiable Limit < 1.00 μg/mL)"}, {"measurement": "plasma concentration at 1 hour", "setting": "[1]; individual rats 8, 9, 11", "value": "1.12 μg/mL and BQL (BQL = Below Quantifiable Limit < 1.00 μg/mL) (2×)"}, {"measurement": "plasma concentration at 2 hours", "setting": "[1]; individual rats 8, 9, 11", "value": "1.27 μg/mL and BQL (BQL = Below Quantifiable Limit < 1.00 μg/mL) and 1.09 μg/mL"}, {"measurement": "plasma concentration at 4 hours", "setting": "[1]; individual rats 8, 9, 11", "value": "1.67 μg/mL and BQL (BQL = Below Quantifiable Limit < 1.00 μg/mL) and 1.95 μg/mL"}, {"measurement": "plasma concentration at 6 hours", "setting": "[1]; individual rats 8, 9, 11", "value": "2.96 μg/mL and BQL (BQL = Below Quantifiable Limit < 1.00 μg/mL) and 1.73 μg/mL"}, {"measurement": "plasma concentration at 8 hours", "setting": "[1]; individual rats 8, 9, 11", "value": "2.58 μg/mL and BQL (BQL = Below Quantifiable Limit < 1.00 μg/mL) and 2.06 μg/mL"}, {"measurement": "plasma concentration at 12 hours", "setting": "[1]; individual rats 8, 9, 11", "value": "2850 ng/mL and 2230 ng/mL and 2080 ng/mL"}, {"measurement": "plasma concentration at 24 hours", "setting": "[1]; individual rats 8, 9, 11", "value": "2220 ng/mL and 1290 ng/mL and 1860 ng/mL"}, {"measurement": "plasma concentration at 48 hours", "setting": "[1]; individual rats 8, 9, 11", "value": "1640 ng/mL and 1030 ng/mL and 1140 ng/mL"}, {"measurement": "plasma concentration at 72 hours", "setting": "[1]; individual rats 8, 9, 11", "value": "1.25 μg/mL and BQL (BQL = Below Quantifiable Limit < 1.00 μg/mL) (2×)"}, {"measurement": "plasma concentration at 96 hours", "setting": "[1]; individual rats 8, 11", "value": "BQL (BQL = Below Quantifiable Limit < 1.00 μg/mL)"}, {"measurement": "plasma concentration at 120 hours", "setting": "[1]; rat 8", "value": "BQL (BQL = Below Quantifiable Limit < 1.00 μg/mL)"}, {"measurement": "inhibition of cytochrome P450 2C9, in words", "setting": "[2]", "value": "quite potent"}, {"measurement": "IC50", "setting": "[3]", "value": 220, "unit": "nM"}]}, {"smiles": "O=C(O)C(Oc1cccc(C(F)(F)F)c1)c1ccc(Cl)cc1", "note": "(racemic) [racemic halofenic acid, 4-Chlorophenyl-(3-trifluoromethylphenoxy)-acetic Acid]", "values": [{"measurement": "inhibition of cytochrome P450 2C9, in words", "setting": "[2]", "value": "found to inhibit cytochrome P450 2C9"}, {"measurement": "IC50", "setting": "[3]", "value": 450, "unit": "nM"}]}, {"smiles": "CC(=O)NCCOC(=O)C(Oc1cccc(C(F)(F)F)c1)c1ccc(Cl)cc1", "note": "(racemic) [racemic halofenate, 2-acetamidoethyl (4-chlorophenyl) (3-trifluoromethylphenoxy) acetate, reference compound]", "values": [{"measurement": "time points with significant plasma glucose reduction vs control", "setting": "[4]; 250 mg/kg/day oral", "value": "Significant decreases in glucose levels"}, {"measurement": "time points with reduced plasma insulin vs control", "setting": "[4]; 250 mg/kg/day oral, listed as racemate, 250 mg/kg/day", "value": "insulins were lower"}, {"measurement": "side effects noted", "setting": "[5]; previous studies", "value": "gastrointestinal bleeding from stomach and peptic ulcers"}, {"measurement": "effect on glucose in patients with diabetes", "setting": "[5]; treated with racemic halofenate alone", "value": "minimal effect on glucose"}, {"measurement": "time of peak glucose-lowering activity", "setting": "[6]", "value": 9, "unit": "h"}, {"measurement": "time points with significant (p<0.05) decrease in glucose compared to control", "setting": "[6]", "value": "most of the timepoints"}, {"measurement": "plasma glucose after oral glucose challenge, in words", "setting": "[7]; single oral dose 5.5 hours before challenge", "value": "plasma glucose was reduced"}, {"measurement": "incremental glucose area under the curve (AUC) vs control, in words", "setting": "[7]", "value": "not statistically significant"}, {"measurement": "plasma cholesterol course during treatment, in words", "setting": "[8]", "value": "plasma cholesterol declined with treatment"}]}, {"smiles": "CC(=O)NCCOC(=O)C(Oc1cccc(C(F)(F)F)c1)c1ccc(Cl)cc1", "note": "(single isomer, unassigned; (+)) [(+) halofenate, (+) 2-Acetamidoethyl 4-Chlorophenyl-(3-trifluoromethylphenoxy)-acetate, reference compound]", "values": [{"measurement": "overnight fasting plasma insulin after 5 days, in words", "setting": "[4]; 125 mg/kg/day oral, listed as (+) enantiomer, 125 mg/kg/day", "value": "did not lower plasma insulin"}, {"measurement": "overnight fasting plasma insulin after 5 days, in words", "setting": "[4]; [12]", "value": "decrease in plasma insulin"}, {"measurement": "time points with reduced plasma insulin vs control", "setting": "[4]; [12]", "value": "greatest extent of reduced plasma insulin was noted at 27 and 30 hours"}, {"measurement": "plasma glucose compared to vehicle-treated animals, in words", "setting": "[9]", "value": "failed to reduce plasma glucose concentrations"}, {"measurement": "incremental glucose area under the curve (AUC) vs control, in words", "setting": "[7]", "value": "not statistically significant"}, {"measurement": "lowering of plasma triglyceride vs control at 7 days, in words", "setting": "[8]; 37.5 mg/kg/day (High dose)", "value": "significant lowering of plasma triglyceride"}, {"measurement": "days of treatment with significant plasma cholesterol decrease vs control", "setting": "[8]; 37.5 mg/kg/day (High dose), 37.5 mg/kg/day", "value": "after 7 days but not after 14 days"}, {"measurement": "plasma cholesterol course during treatment, in words", "setting": "[8]", "value": "remained relatively constant"}, {"measurement": "insulin sensitivity (slope of decline in glucose after i.v. insulin), in words", "setting": "[10]", "value": "small effect on insulin sensitivity that was not significantly different from the vehicle-treated control"}, {"measurement": "plasma uric acid levels vs vehicle, in words", "setting": "[11]", "value": "lowered plasma uric acid levels, but it was not statistically significant"}]}]}
